Test [1] in a line: Sensory evaluation of off-taste suppressing effect in 0.8 wt % potassium chloride aqueous solution (Experimental Examples 1 and 2).
Test [2] can be described thus: Sensory evaluation in chicken broth solution with potassium chloride (Experimental Example 3). As to conditions: chicken broth solution with 0.8 wt % potassium chloride; addition concentration 1 ppm (125 weight ppm with respect to potassium chloride). A digest of the protocol: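 Base solution: 1.0 g powdered chicken broth mix plus 0.8 g KCl dissolved in 98.2 g hot water, giving a potassium-chloride off-taste. Compounds were added at set concentrations. Two expert panelists scored intensity of KCl-derived bitter, metallic, harsh and astringent off-tastes.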

A short description of test [3]: Sensory evaluation in BCAA sweetness aqueous solution (Experimental Example 6). Also noted: key to off-taste suppressing effect: ±: no change from negative control; −: slightly suppressed compared to negative control; −−: suppressed compared to negative control (same level of intensity as BCAA sweetness aqueous solution in which total concentration of leucine, isoleucine, and valine (weight ratio=2:1:1) exceeds 0.8 wt % and is not more than 0.9 wt %); −−−: considerably suppressed compared to negative control (same level of intensity as BCAA sweetness aqueous solution in which total concentration of leucine, isoleucine, and valine (weight ratio=2:1:1) is not more than 0.8 wt %). How it is done:
Each compound shown in the following Table 20 was added to an aqueous solution prepared by dissolving leucine (0.50 parts by weight), isoleucine (0.25 parts by weight), valine (0.25 parts by weight), and granulated sugar (4 parts by weight) in ion exchange water (95 parts by weight) (hereinafter at times referred to as BCAA sweetness aqueous solution) so as to achieve the concentration (addition concentration) shown in the following Table 20 to prepare each evaluation sample.
Based on the following evaluation criteria, a panel of four experts determined by consensus the intensity of off-tastes (bitter taste, harsh taste) derived from amino acid in each evaluation sample, by comparison with a BCAA sweetness aqueous solution without addition of any compound (negative control).

Test [4] in a line: Sensory evaluation in 0.007 wt % sucralose aqueous solution (Experimental Example 11). To be noted: Table 25. How it is done:
Each compound shown in the following Table 25 was added to a 0.007 wt % sucralose aqueous solution (an aqueous solution prepared by dissolving sucralose (0.007 parts by weight) in water (99.993 parts by weight)) so as to achieve the concentration (addition concentration) shown in the following Table 25 to prepare each evaluation sample.
Based on the following evaluation criteria, a panel of three experts determined by consensus the intensity of off-tastes (bitter taste, harsh taste, metallic taste) derived from sucralose in each evaluation sample, by comparison with a 0.007 wt % sucralose aqueous solution without addition of any compound (negative control).

Test [5] in a line: Sensory evaluation in soy protein aqueous solution (Experimental Example 13). As to conditions: Table 27. How it is done:
Each compound shown in the following Table 27 was added to an aqueous solution prepared by dissolving powdered soy protein (4 parts by weight) in water (96 parts by weight) (hereinafter at times referred to as soy protein aqueous solution) so as to achieve the concentration (addition concentration) shown in the following Table 27 to prepare each evaluation sample. Here, the powdered soy protein manufactured by FUJI OIL CO., LTD. was used.
Based on the following evaluation criteria, a panel of four experts determined by consensus the intensity of off-tastes (bitter taste, harsh taste, astringent taste) derived from soy protein in each evaluation sample, by comparison with a soy protein aqueous solution without addition of any compound (negative control).

Test [6] is described as follows: Sensory evaluation in sodium acetate aqueous solution (Experimental Example 18). To be noted: Table 33. On the procedure: Each compound shown in the following Table 33 was added to an aqueous solution prepared by dissolving sodium acetate (1 part by weight) and acetic acid (0.3 parts by weight) in water (98.7 parts by weight) (hereinafter at times referred to as sodium acetate aqueous solution) so as to achieve the concentration (addition concentration) shown in the following Table 33 to prepare each evaluation sample.
Based on the following evaluation criteria, a panel of four experts determined by consensus the intensity of off-tastes (bitter taste, harsh taste, astringent taste) derived from sodium acetate in each evaluation sample, by comparison with a sodium acetate aqueous solution without addition of any compound (negative control).

Test [7] in a line: Sensory evaluation in 1 wt % methyl cellulose aqueous solution (Experimental Example 20). To be noted: Table 35. How it is done: Each compound shown in the following Table 35 was added to a 1 wt % methyl cellulose aqueous solution (aqueous solution prepared by dissolving methyl cellulose (1 part by weight) in water (99 parts by weight)) so as to achieve the concentration (addition concentration) shown in the following Table 35 to prepare each evaluation sample. Here, the methyl cellulose manufactured by Unitec Foods Co., Ltd. was used.
Based on the following evaluation criteria, a panel of four experts determined by consensus the intensity of off-tastes (bitter taste, harsh taste, astringent taste) derived from methyl cellulose in each evaluation sample, by comparison with a 1 wt % methyl cellulose aqueous solution without addition of any compound (negative control).

These results are taken from patent publication US20220279826A1, “OFF-FLAVOR SUPPRESSING AGENT” (AJINOMOTO CO., INC., priority 2019, published 2022).

Each structure is given as a SMILES string.

For the compound `CCC(=O)O` [propionic acid], the off-taste suppressing effect result in test [1] (0.8 wt % potassium chloride aqueous solution, addition concentration 100 weight ppb (12.5 weight ppm with respect to potassium chloride)) is “+ (intensity of the same level as potassium chloride aqueous solution with potassium chloride concentration of not less than 0.75 wt % and less than 0.8 wt %)”; in test [1] (0.8 wt % potassium chloride aqueous solution, addition concentration 500 weight ppb (62.5 weight ppm with respect to potassium chloride)), “++ (intensity of the same level as potassium chloride aqueous solution with potassium chloride concentration of not less than 0.7 wt % and less than 0.75 wt %)”; in test [1] (0.8 wt % potassium chloride aqueous solution, addition concentration 1000 weight ppb (125 weight ppm with respect to potassium chloride)), “++ (intensity of the same level as potassium chloride aqueous solution with potassium chloride concentration of not less than 0.7 wt % and less than 0.75 wt %)”; in test [1] (0.8 wt % potassium chloride aqueous solution, addition concentration 2000 weight ppb (250 weight ppm with respect to potassium chloride)), “++ (intensity of the same level as potassium chloride aqueous solution with potassium chloride concentration of not less than 0.7 wt % and less than 0.75 wt %)”; in test [1] (in words, potassium chloride aqueous solutions, Tables 1 to 14) it was “high”; in test [2], “+++ (intensity of the same level as potassium chloride aqueous solution with potassium chloride concentration of not less than 0.65 wt % and less than 0.7 wt %)”. The off-taste suppressing effect result in test [3] (addition concentration 100 weight ppb (10 weight ppm with respect to amino acid)) was “−”; in test [3] (addition concentration 500 weight ppb (50 weight ppm with respect to amino acid)), “−− (suppressed compared to negative control (same level of intensity as BCAA sweetness aqueous solution in which total concentration of leucine, isoleucine, and valine (weight ratio=2:1:1) exceeds 0.8 wt % and is not more than 0.9 wt %))”; in test [3] (addition concentration 1000 weight ppb (100 weight ppm with respect to amino acid)), “−− (suppressed compared to negative control (same level of intensity as BCAA sweetness aqueous solution in which total concentration of leucine, isoleucine, and valine (weight ratio=2:1:1) exceeds 0.8 wt % and is not more than 0.9 wt %))”; in test [3] (addition concentration 2000 weight ppb (200 weight ppm with respect to amino acid)), “−− (suppressed compared to negative control (same level of intensity as BCAA sweetness aqueous solution in which total concentration of leucine, isoleucine, and valine (weight ratio=2:1:1) exceeds 0.8 wt % and is not more than 0.9 wt %))”. Further, the “intensity of off-tastes (bitter taste, metallic taste, harsh taste, astringent taste) derived from potassium chloride” value in test [1] (potassium chloride aqueous solutions, Tables 1 to 14) is listed as “decreased”. Besides, the “intensity of off-tastes (bitter taste, harsh taste) derived from amino acid (branched chain amino acid)” value in test [3] (summary of Table 20) is “suppressed”. Moreover, the “intensity of off-tastes (bitter taste, harsh taste, metallic taste) derived from sucralose” value in test [4] is “suppressed”. The “intensity of off-tastes (bitter taste, harsh taste, astringent taste) derived from soy protein” value in test [5] is recorded as “suppressed”. For the same compound, the “intensity of off-tastes (bitter taste, harsh taste, astringent taste) derived from sodium acetate” value in test [6] was “suppressed”. The “intensity of off-tastes (bitter taste, harsh taste, astringent taste) derived from methyl cellulose” value in test [7] was “suppressed”.
